# Results from paper PMC11666850, “Development and evaluation of deuterated [^18F]JHU94620 isotopologues for the non-invasive assessment of the cannabinoid type 2 receptor in brain” (EJNMMI Radiopharmacy and Chemistry, 2024).
# Legend:
# CB2R [1] = experiment: Quantitative autoradiography, pig spleen cryosections; type: binding; settings: blocking with 10 µM GW405833 or self-blocking
# Procedure: For quantitative autoradiography in different species, 10 µm cryosections from mouse, rat and piglet spleen were thawed, dried, and pre-incubated with incubation buffer for 10 min, dried under an airstream. Subsequently, the incubation buffer containing [^18F]JHU94620-d8 (59–137 GBq µmol^−1, 1.7–3.6 nM) was added alone or together with indicated concentrations of the reference compound. Additionally, to assess the non-specific binding of [^18F]JHU94620-d8 to cryosections GW405833 was added instead of the reference compound. After 90 min, cryosections were washed two times for 2 min with ice-cold 50 mM Tris HCl, pH7.4 and 10 s in ddH2O and subsequently dried under an airstream. For the calculation of the radioactivity concentration, 5 µl of five serial 1:2 dilutions of the incubation buffer with [^18F]JHU94620-d8 were air-dried on a microscopic slide. For binding studies in rat spleen cryosections by autoradiography with HLM-derived radiometabolites of [^18F]JHU94620-d8 obtained from the radiometabolite assay, the samples were added to the incubation buffer to a final activity concentration of 0.2 MBq mL^−1 and protocol was followed as described above. Subsequently, the slides were exposed to a phosphor imager plate. After scanning at high sensitivity and a 12.5 µm resolution with a CR35 Bio image plate scanner (Raytest Isotopenmessgeräte GmbH, Straubenhardt, Germany). […]
# hCB2R(D80N) = hCB2R(D80N) (Homo sapiens, UniProt P34972, D80N); experiment: Homologous displacement autoradiography, brain cryosections of rats with hCB2R(D80N) overexpression; type: binding
# hCB2R(D80N), sequence (P34972 whole entry D80N): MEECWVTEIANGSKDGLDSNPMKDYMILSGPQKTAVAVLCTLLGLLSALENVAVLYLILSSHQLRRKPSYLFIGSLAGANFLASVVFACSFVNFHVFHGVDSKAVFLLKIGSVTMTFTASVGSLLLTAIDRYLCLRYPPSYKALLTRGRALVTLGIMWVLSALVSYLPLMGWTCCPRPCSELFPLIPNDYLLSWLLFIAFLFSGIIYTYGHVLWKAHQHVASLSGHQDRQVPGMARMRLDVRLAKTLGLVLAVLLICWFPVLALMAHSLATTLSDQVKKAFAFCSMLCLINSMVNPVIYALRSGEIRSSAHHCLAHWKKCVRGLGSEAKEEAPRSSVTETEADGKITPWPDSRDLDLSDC
# CB2R [2] = target: T1, CB2R (Rattus norvegicus, UniProt Q9QZN9); type: in vivo; settings: male, Wistar, rat, in vivo
# T1 construct: from tissue; host or cells: rat spleen: cryosections in vitro, and spleen of living Wistar rats in PET
# T1 sequence (Q9QZN9 1-360): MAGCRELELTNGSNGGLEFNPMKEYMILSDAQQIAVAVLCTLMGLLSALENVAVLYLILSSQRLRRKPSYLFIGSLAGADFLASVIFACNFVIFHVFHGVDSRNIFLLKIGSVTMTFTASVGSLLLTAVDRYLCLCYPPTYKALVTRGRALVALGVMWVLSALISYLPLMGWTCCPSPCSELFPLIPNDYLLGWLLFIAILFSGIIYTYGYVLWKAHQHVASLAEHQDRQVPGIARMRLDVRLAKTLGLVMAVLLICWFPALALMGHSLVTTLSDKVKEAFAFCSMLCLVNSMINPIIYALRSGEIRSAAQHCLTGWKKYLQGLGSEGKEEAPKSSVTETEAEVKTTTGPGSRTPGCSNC
# Procedure: The dynamic biodistribution of the radiotracer in the lower body of rats was assessed by small animal PET (Nanoscan, Mediso, Hungary) over 60 min with a subsequently T1-weighted MR. Anaesthetized (2% isoflurane, carrier gas mixture of 40% air and 60% O2) male Wistar rats (body weight: 205–308 g, age: 8–10 weeks, no gender-specific differences were taken into account) were kept during imaging on a heated animal bed to sustain body temperature and were pretreated with vehicle (DMSO:Kolliphore EL:0.9% saline, 1:2:7), JHU94620-d8 (1.5 mg kg^−1 bodyweight) or with GW405833 (5 mg kg^−1 bodyweight) 5 min prior tracer application ([^18F]JHU94620-d8: 7.7–28.2 MBq, 0.4 to 3.2 nmol kg^−1 bodyweight), whereby all injections were administered intravenously. For the evaluation of the hCB2R-specific binding of the radiotracer in the brain, female Wistar rats (n = 6, 253–269 g, age: 8 month) were used carrying stereotactically injected constructs of AAV2/7-CaMKII0.4-intron-hCB2R(D80N) in the right striatum and AAV2/7-CaMKII0.4-intron-3flag-eGFP in the control/contralateral striatum (Vandeputte et al. [2011]). 21–26 MBq corresponding to 0.2 to 2.0 nmol kg^−1 bodyweight radiotracer were injected, whereas in displacement studies 5 mg kg^−1 bodyweight GW405833 was administered 20 min after the radiotracer (each n = 3). The PET scans were performed six months after the stereotactic injections of the AAV2/7-constructs.
# The acquisitions were performed in normal mode and a coincidence mode 1–5. For subsequent dynamic reconstructions list mode data were sorted into sinograms (12 × 10 s, 6 × 30 s, 5 × 60 s and 10 × 300 s). The frames were reconstructed by Ordered Subset Expectation Maximization applied to 3D (OSEM3D) sinograms corrected for decay and attenuation (4 iterations, 6 subsets and a voxel size of 0.4 mm^3) with the Nucline software v2.01 (Mediso, Budapest, Hungary). Analyses of reconstructed studies were performed with PMOD software (v4.205, PMOD Technologies LLC, Fällanden, Switzerland) and results are expressed in standardized uptake values (SUVs) or normalized to a reference region (SUVr).
smiles,measurement,setting,value
[2H]C([2H])([18F])C([2H])([2H])C([2H])([2H])C([2H])([2H])n1c(C)c(C)s/c1=N\C(=O)C1C(C)(C)C1(C)C [[^18F]JHU94620-d8],specific binding to CB2R,CB2R [1],22 ± 11%
same,Kd,hCB2R(D80N),41 nM
same,SUVr(spleen-to-blood) at late time points,CB2R [2],about 1.5
same,spleen SUVmean at late time points,CB2R [2],about 0.5 SUVmean
